Experiment: Fluorescence titration of sensors with Al^3+
Conditions: λex=510 nm, emission 585 nm
Method: All reagents and solvents were purchased as analytical-grade and used without further purification unless otherwise stated. Stock solutions of metal ions were prepared from their nitrate and chloride salts and anion species from their tetrabutylammonium salts. Distilled deionized water was used throughout the experiments. ^1H-NMR and 13C-NMR spectra were recorded using an Avance 400 MHz spectrometer (BRUKER® Billerica, Karlsruhe, Germany) with tetramethylsilane (TMS) as internal standard and deuterated chloroform (CDCl3) as solvent. NMR spectra were analyzed using MestReNova software (version 10, Mestrela Research, Feliciano Barrera-Bajo, Spain). The IR spectrum was obtained using FT-IR spectrometer (Shimadzu, IRAffinity-1S, Columbia, MD, USA). […] All UV-vis spectroscopy experiments were recorded using a Cary UV/vis spectrophotometer 5000 (VARIAN®, Walnut Creek, CA, USA). Fluorescence emission spectra experiments were measured using a Cary 60 series spectrometer (AGILENT® Walnut Creek, CA, USA), with excitation and emission slit widths of 5 nm and excitation wavelength at 510 nm. […]
All spectroscopic measurements were carried out in aqueous CH3CN medium at room temperature. […] Each fluorescence titration was repeated at least thrice until consistent values were obtained. […] The association constant (K) was calculated from absorbance studies by the linear Benesi-Hildebrand equation. […]

CCN(CC)c1ccc2c(c1)Oc1cc(N(CC)CC)ccc1C21c2ccccc2C(=O)N1/N=C/c1cc(Br)cc(OC)c1O [L2]
detection limit for Al^3+ ions: 47 µM

CCN(CC)c1ccc2c(c1)Oc1cc(N(CC)CC)ccc1C21c2ccccc2C(=O)N1/N=C/c1c(OC)ccc2ccccc12 [L1]
detection limit for Al^3+ ions: 32 µM
